For 85 compounds, LC retention time results are on record in the RepoRT retention time repository.

The data set in a line: HILIC, Waters ACQUITY UPLC BEH Amide, 100 × 2.1 mm, 1.7 µm; A: water + 0.125% formic acid + 10 mM ammonium formate; B: 5% water + 95% acetonitrile + 0.125% formic acid + 10 mM ammonium formate; gradient (min/%B) 0/100 2/100 7.7/70 9.5/40 10.25/30 12.75/100 17/100. The note with it: stereoisomer not certain.

In the case of `NC(Cc1ccc(O)c(O)c1)C(=O)O` (stereo not given) [3,4-Dihydroxyphenylalanine], the LC retention time was found to be 8.31 min. As for `COc1ccc(C=O)cc1OC` [3,4-Dimethoxybenzaldehyde], the figure is 1.08 min; as for `CCNC(C)Cc1ccc2c(c1)OCO2` (stereo not given) [3,4-Methylenedioxyethamphetamine], 2.94 min; as for `NC(Cn1cccn1)C(=O)O` (stereo not given) [3-(1-Pyrazolyl)-alanine], 7.54 min. Consider `NC(CC(=O)O)c1ccc(O)cc1` (stereo not given) [3-Amino-3-(4-hydroxyphenyl)propionic acid], for which the LC retention time was 7.42 min. For `CC(CN)C(=O)O` (stereo not given) [3-Aminoisobutyric acid] the value was 7.4 min; for `Nc1cc(CC(N)C(=O)O)ccc1O` (stereo not given) [3-Aminotyrosine], 8.06 min; for `NC(Cc1ccc(O)c(Cl)c1)C(=O)O` (stereo not given) [3-Chlorotyrosine], 7.13 min.

As for `O=c1ccn(C2OC(CO)CC2O)c(=O)[nH]1` (stereo not given) [3-Deoxyuridine], the LC retention time came to 2.87 min. For `NC(N)=NCCC(=O)O` [3-Guanidinopropionic acid], the LC retention time was found to be 8.15 min. For `Nc1c(O)cccc1C(=O)O` [3-Hydroxyanthranilic acid] the value was 1.48 min; for `O=Cc1cccc(O)c1` [3-Hydroxybenzaldehyde], 1.18 min. As for `CC(O)CC(=O)OC(CC(=O)[O-])C[N+](C)(C)C` (stereo not given) [3-Hydroxybutyrylcarnitine], the figure is 7.62 min; as for `Nc1c(O)cccc1C(=O)CC(N)C(=O)O` (stereo not given) [3-Hydroxykynurenine], 7.35 min; as for `O=C(O)Cc1cccc(O)c1` [3-Hydroxyphenylacetic acid], 1.45 min. As to `NC(Cc1cccc(O)c1)C(=O)O` (stereo not given) [3-Hydroxyphenylalanine], the LC retention time is 7.44 min. For `O=C(O)C1NCCC1O` (stereo not given) [3-Hydroxyproline] the value was 8.17 min. For `O=C(O)CCCCCCC(O)CC(=O)O` (stereo not given) [3-Hydroxysebacic acid] the value was 2.55 min; for `CCC(O)CC(=O)O` (stereo not given) [3-Hydroxyvaleric acid], 1.29 min; for `O=C(O)Cc1c[nH]c2ccccc12` [3-Indoleacetic acid], 1.33 min. On to `N#CCc1c[nH]c2ccccc12` [3-Indoleacetonitrile], for which the LC retention time was determined as 8.02 min. As for `O=C(O)CCc1c[nH]c2ccccc12` [3-Indolepropionic acid], the figure is 1.28 min; as for `CC(C)=CC(=O)NCC(=O)O` [3-Methylcrotonylglycine], 2.95 min. For `Cn1c(=N)ccn(C2OC(CO)C(O)C2O)c1=O` (stereo not given) [3-Methylcytidine] the value was 6.99 min; for `Cn1cncc1CC(N)C(=O)O` (stereo not given) [3-Methylhistidine], 9.41 min; for `CC1C(=O)Nc2ccccc21` (stereo not given) [3-Methyloxyindole], 1.07 min. Regarding `CSCCCN` [3-Methylthiopropylamine], the LC retention time amounted to 5.16 min. `Cn1c(=O)ccn(C2OC(CO)C(O)C2O)c1=O` (stereo not given) [3-Methyluridine]: the LC retention time worked out at 1.12 min. As for `NC(Cc1ccc(O)c([N+](=O)[O-])c1)C(=O)O` (stereo not given) [3-Nitrotyrosine], the figure is 6.88 min. As for `CCCCCC(O)CC` (stereo not given) [3-Octanol], the figure is 8.47 min; as for `O=C(O)CCP(=O)(O)O` [3-Phosphonopropionic acid], 8.59 min. Take `OCc1cccnc1` [3-Pyridinemthanol]: the LC retention time came to 1.41 min. For `C[Si](C)(C)CCC(=O)O` [3-Trimethylsilylpropionic acid], the LC retention time was found to be 5.64 min. Regarding `NC(=O)NCCC(=O)O` [3-Ureidopropionic acid], the LC retention time amounted to 5.6 min. For `CC(C)CCCC(C)C1CCC2C3CC=C4CC(OC(=O)NCCN(C)C)CCC4(C)C3CCC12C` (stereo not drawn) [3-beta-Cholest-5-en-3-yl [2-(dimethylamino)ethyl]carbamate] the value was 2.34 min; for `O=c1c(-c2ccc(O)cc2)coc2cc(O)cc(O)c12` [4,5,7-Trihydroxyisoflavone], 1.27 min; for `CC(=O)NCCCC(=O)O` [4-Acetamidobutyric acid], 2.26 min. In the case of `CC(=O)CCCC(=O)O` [4-Acetylbutyric acid], the LC retention time is 1.24 min. In the case of `Nc1ccc(C(=O)O)cc1` [4-Aminobenzoic acid], the LC retention time amounted to 7.49 min. For `NCC1CCC(C(=O)O)CC1` (stereo not given) [4-Aminomethylcyclohexanecarboxylic acid] the value was 6.6 min; for `Nc1ccc(O)cc1` [4-Aminophenol], 1.34 min. For `NC(N)=NCCCC(=O)O` [4-Guanidinobutyric acid] the value was 7.72 min; for `CCCCCCc1ccc(O)cc1O` [4-Hexylresorcinol], 1.63 min; for `CC(=O)CC(C)(C)O` [4-Hydroxy-4-methyl-2-pentanone], 4.88 min. For `Cc1cc(O)cc(=O)o1` [4-Hydroxy-6-methyl-2-pyrone] the value was 1.47 min; for `O=Cc1ccc(O)cc1` [4-Hydroxybenzaldehyde], 1.18 min. On to `O=C(O)CNC(=O)c1ccc(O)cc1` [4-Hydroxyhippuric acid], for which the LC retention time turned out to be 5.86 min. As for `N#CC(O)c1ccc(O)cc1` (stereo not given) [4-Hydroxymandelonitrile], the figure is 2.63 min; as for `CCCCCC(O)C=CC=O` (stereo not given) [4-Hydroxynonenal], 1.07 min. Regarding `O=c1cc[nH]c2ccccc12` [4-Hydroxyquinoline], the LC retention time was determined as 1.69 min.

Take `Cc1ncsc1CCO` [4-Methyl-5-thiazoleethanol]: the LC retention time was found to be 1.21 min.

Regarding `Cc1cc(=O)oc2cc(O)ccc12` [4-Methylumbelliferone], the LC retention time was determined as 1.22 min. As for `CC(=O)Oc1ccc2c(C)cc(=O)oc2c1` [4-Methylumbelliferyl acetate], the figure is 1.06 min; as for `O=[N+]([O-])c1cc[n+]([O-])c2ccccc12` [4-Nitroquinoline-N-oxide], 1.14 min. As for `Cc1ncc(CO)c(C(=O)O)c1O` [4-Pyridoxic acid], the figure is 2.66 min; as for `O=C(O)c1ccnc2ccccc12` [4-Quinolinecarboxylic acid], 4.58 min; as for `O=c1[nH]c(=S)ccn1C1OC(CO)C(O)C1O` (stereo not given) [4-Thiouridine], 2.27 min. Consider `C[N+](C)(C)CCCC(=O)O` [4-Trimethylammoniobutanoic acid], for which the LC retention time came to 7.66 min. As for `CSCC1OC(n2cnc3c(N)ncnc32)C(O)C1O` (stereo not given) [5'-Methylthioadenosine], the figure is 2.49 min; as for `COCC1OC(n2cc(C)c(=O)[nH]c2=O)CC1O` (stereo not given) [5'-O-Methylthymidine], 1.46 min; as for `CC1CNC(=O)NC1=O` (stereo not given) [5,6-Dihydro-5-methyluracil], 1.57 min.

As to `O=C1CCNC(=O)N1` [5,6-Dihydrouracil], the LC retention time came to 1.77 min. Take `Cc1cc2nc[nH]c2cc1C` [5,6-Dimethylbenzimidazole]: the LC retention time stood at 1.82 min. In the case of `NC(=O)c1[nH]cnc1N` [5-Aminoimidazole-4-carboxamide], the LC retention time was 4.18 min. As for `NCCCCC(=O)O` [5-Aminovaleric acid], the figure is 7.24 min; as for `CC(C)CCCC(C)C1CCC2C3C(O)C=C4CC(O)CCC4(C)C3CCC12C` (stereo not drawn) [5-Cholesten-3-beta-7-alpha-diol], 3.36 min; as for `O=c1ncc(F)c[nH]1` [5-Fluro-2-pyrimidone], 1.77 min. As for `Nc1[nH]c(=O)ncc1F` [5-Flurocytosine], the figure is 4.62 min; as for `O=C(O)Cc1c[nH]c2ccc(O)cc12` [5-Hydroxy-3-indoleacetic acid], 1.78 min; as for `Nc1nc(=O)n(C2OC(CO)C(O)C2O)cc1CO` (stereo not given) [5-Hydroxymethylcytidine], 7.54 min. For `Nc1[nH]c(=O)ncc1CO` [5-Hydroxymethylcytosine] the value was 6.9 min; for `NC(Cc1c[nH]c2ccc(O)cc12)C(=O)O` (stereo not given) [5-Hydroxytryptophan], 7.48 min. As for `OCCc1c[nH]c2ccc(O)cc12` [5-Hydroxytryptophol], the LC retention time is 5.93 min. Regarding `COc1ccc2[nH]cc(CC(=O)O)c2c1` [5-Methoxy-3-indoleacetic acid], the LC retention time was found to be 1.32 min. For `COc1c2ccoc2cc2oc(=O)ccc12` [5-Methoxypsoralen] the value was 1.07 min; for `COc1ccc2[nH]cc(CCN)c2c1` [5-Methoxytryptamine], 4.99 min; for `COc1ccc2[nH]cc(CCO)c2c1` [5-Methoxytryptophol], 1.18 min.

Regarding `COc1cn(C2OC(CO)C(O)C2O)c(=O)[nH]c1=O` (stereo not given) [5-Methoxyuridine], the LC retention time was determined as 4.72 min. As for `Cc1cn(C2OC(CO)C(O)C2O)c(=S)[nH]c1=O` (stereo not given) [5-Methyl-2-thiouridine], the LC retention time is 1.98 min.

For the compound `Cc1cn(C2OC(CO)CC2O)c(=O)[nH]c1=O` (stereo not given) [5-Methyl-3-deoxyuridine], the LC retention time was 2.6 min. `Cc1cn(C2OC(CO)C(O)C2O)c(=O)nc1N` (stereo not given) [5-Methylcytidine]: the LC retention time is 6.39 min.

For `Cc1cnc(=O)[nH]c1N` [5-Methylcytosine], the LC retention time stood at 6.62 min. In the case of `Cc1cn(C2OC(CO)C(O)C2O)c(=O)[nH]c1=O` (stereo not given) [5-Methyluridine], the LC retention time is 4.19 min.

Regarding `CCCCCCCCCOc1ccc2[nH]cc(CCN)c2c1` [5-Nonyloxytryptamine], the LC retention time is 3.4 min. As for `Nc1ccc2cn[nH]c2c1` [6-Aminoindazole], the figure is 1.26 min.
